Reference: ChEMBL document CHEMBL5606458, “ASAP - ZIKV NS2B-NS3 protease fluorescence single point” (2024)

target: Nonstructural protein 3 (Zika virus) (UniProt A0A024AXB9); assay: Functional biochemical assay to identify treatments for viral infectious disease that targets Zika NS2B-NS3 protease. Utilizing a direct enzyme activity measurement method, reading the fluorescence intensity is used to characterize the relative potency of inhibitors as % inhibition. Synthetic construct has been made based on Zika virus (strain PRVABC59) by Centre for Medicines Discovery, University of Oxford, and the assay has been performed by Stanford University.The protocol is publicly available: dx.doi.org/10.17504/protocols.io.4r3l29533v1y/v1; conditions: Concentration 25.0 uM, Number of replicates 1.0
Sequence (A0A024AXB9 as listed by the source): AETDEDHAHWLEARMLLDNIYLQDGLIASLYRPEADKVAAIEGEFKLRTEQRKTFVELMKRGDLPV

Point of comparison: `Nc1ccc2ccc(B(O)O)cc2c1`, inhibition 81%. Against it:
- CN(C)c1ccc(C=C(C#N)C(N)=O)cc1 — lower, 50.7%
- O=Cc1ccc(N2CCC(C(=O)O)CC2)cc1 — lower, 66%
- O=Cc1ccc(N2CCC(C(=O)O)CC2)o1 — lower, 55.4%
- O=Cc1ccc(N2CCCCCC2)cc1 — lower, 46.5%
- Cc1c(C=O)c2ccccn2c1C(=O)c1ccncc1 — lower, 48.3%
- O=Cc1ccc(N2CCCCC2)cc1 — lower, 49%
- Cc1nc(C=O)c2ccccn12 — lower, 45%
- Cc1c(C=O)c2ccccn2c1C#N — lower, 48.9%
- CC[C@H]1CO[C@H](C)CN1c1ccc(C=O)cn1 — lower, 61.5%
- Cc1cc(NS(=O)(=O)c2ccc(S(=O)(=O)F)cc2)c[nH]c1=O — lower, 60.6%
- O=Cc1nc(-c2ccccc2Cl)n2ccccc12 — lower, 48.3%
